Like-named read-outs stand apart in the source and are kept apart here. Blank lines part the entries; values can stand above or below the molecule they belong to.
How the values were obtained:
[1] = target: S1P3 receptor (Homo sapiens, UniProt Q99500); test: agonistic activity at S1P3 receptor; type: biochemical
[2] = target: human S1P1 receptor (Homo sapiens, UniProt P21453); test: agonistic activity at human S1P1 receptor; type: biochemical; settings: compared with S1P4 and S1P5
[3] = target: human S1P2 receptor (Homo sapiens, UniProt O95136); test: agonistic activity at human S1P2 receptor; type: biochemical
[4] = target: human S1Ps receptor (Homo sapiens, UniProt Q9H228); test: agonistic activity at human S1Ps receptor; type: biochemical; settings: less potent than at human S1P1 receptor
[5] = target: T1, human S1P4 receptor (Homo sapiens, UniProt O95977); test: agonistic activity at human S1P4 receptor; type: biochemical; settings: less potent than at human S1P1 receptor
T1 sequence (O95977 1-384): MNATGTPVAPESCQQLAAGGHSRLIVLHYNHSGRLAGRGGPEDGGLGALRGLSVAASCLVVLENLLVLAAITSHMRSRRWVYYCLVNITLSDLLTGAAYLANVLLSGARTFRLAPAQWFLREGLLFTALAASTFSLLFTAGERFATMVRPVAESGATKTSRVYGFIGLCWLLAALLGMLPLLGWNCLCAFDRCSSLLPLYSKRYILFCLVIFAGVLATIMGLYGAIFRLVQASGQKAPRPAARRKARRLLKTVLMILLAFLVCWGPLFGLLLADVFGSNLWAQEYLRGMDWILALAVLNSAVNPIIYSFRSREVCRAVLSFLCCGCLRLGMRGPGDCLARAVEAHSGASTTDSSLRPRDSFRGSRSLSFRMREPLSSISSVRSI

[6] = study of amiselimod 0.4 mg QD: steady state, AUC, Cmax, lymphocyte counts; type: in vivo; settings: for increase of steady-state AUC on day 13 compared with day 1 / increase of steady-state Cmax on day 13 compared with day 1: amiselimod 0.4 mg QD
Experimental: Amiselimod has a half-life of about 400 hours. For example, amiselimod has a terminal half-life that is about 20 times longer than etrasimod, which has a half-life of about 17-20 hours. In a study, a daily dose of amiselimod achieved a therapeutic steady state after 14 days of 0.4 mg QD administration. On day 13, the steady-state AUC and Cmax for amiselimod 0.4 mg QD increased by 10-fold for amiselimod and by 4-fold for amiselimod-P compared with day 1. This increase in AUC and Cmax correlated with gradual decrease in absolute lymphocyte counts. The reduction in lymphocyte counts was maintained after amiselimod discontinuation, indicating a persistent therapeutic amiselimod AUC owing in part to the associated half-life. Accordingly, amiselimod may be administered in accordance with the methods described herein less frequently than once daily to achieve the desired treatment such, as for example, maintenance of Ulcerative Colitis. In some embodiments, the second dose may be administered during the second administration period (e.g., the maintenance dose phase) QD, BID, TID, or QID every other day during the second administration period or every two days during the second administration period or every three days during the second administration period or every four days during the second administration period or every five days during the second administration period or every six days during the second administration period or every seven days during the second administration period.

[7] = half-life and accumulation to steady state; type: in vivo, humans; settings: for half-life: in humans; for period of accumulation to steady state: inferred from long half-life
[8] = test system: healthy subjects; test: Phase 1 randomized, double-blind, placebo-controlled safety study, upwardly titrated amiselimod; type: in vivo, human; settings: for discontinuation rate: safety population, 95 subjects per group
Experimental: The safety of amiselimod in healthy subjects was evaluated in a Phase 1 randomized, double-blind, placebo-controlled study where the dose of amiselimod was upwardly titrated.
A randomized, double-blind, multiple-dose, placebo-controlled, parallel study with a nested crossover design evaluated the safety and tolerability profile of amiselimod. Healthy adults were randomized in a 2:1:1 ratio during a 28-day treatment period accordingly: a single dose of placebo followed by oral amiselimod (upwardly titrated in doses ranging from 0.4 to 1.6 mg to achieve steady-state concentrations); a single dose of oral moxifloxacin 400 mg followed by placebo; or placebo followed by a single dose of moxifloxacin 400 mg (for the safety analysis, moxifloxacin arms were combined). The safety population included all subjects who received at least one dose of treatment. Adverse events (AE) and serious AEs were collected. Treatment-emergent AEs were defined as an AE that was starting or worsening at the time of or after study drug administration. Changes in clinical laboratory parameters (including lymphocyte counts), physical examinations, vital signs, and electrocardiogram parameters (including heart rate, PR, QRS, and QT intervals) were recorded. Subjects were permitted to withdraw if lymphocyte counts were ≤0.2×10^9/L.

[9] = test system: peripheral blood lymphocytes (PBLs); test: reduction of peripheral blood lymphocytes after oral dose, cynomolgus monkeys; type: in vivo; settings: oral dose of 0.1 mg/kg or higher
[10] = test system: peripheral blood lymphocytes (PBLs); test: reduction of peripheral blood lymphocytes after oral dose, rats; type: in vivo; settings: oral dose of 0.1 mg/kg or higher
[11] = test system: colitis in the adoptive transfer of CD4+CD45RBhigh T cells; test: colitis in the adoptive transfer of CD4+CD45RBhigh T cells in SCID mice; type: in vivo; settings: oral administration
[12] = test system: heart rate; test: negative chronotropic activity; settings: in vivo
Text: Chronotropic effects in the heart can include changes in the heart rate or rhythm. Negative chronotropic effects are those that result in a decreased heart rate and include bradyarrhythmia (bradycardia).

[13] = test system: peripheral blood lymphocytes (PBLs); test: reduction of peripheral blood lymphocytes after oral dose, mice; type: in vivo; settings: oral dose of 0.1 mg/kg or higher
[14] = comparator etrasimod; cited from earlier work

human S1P1 receptor, sequence (P21453 whole entry): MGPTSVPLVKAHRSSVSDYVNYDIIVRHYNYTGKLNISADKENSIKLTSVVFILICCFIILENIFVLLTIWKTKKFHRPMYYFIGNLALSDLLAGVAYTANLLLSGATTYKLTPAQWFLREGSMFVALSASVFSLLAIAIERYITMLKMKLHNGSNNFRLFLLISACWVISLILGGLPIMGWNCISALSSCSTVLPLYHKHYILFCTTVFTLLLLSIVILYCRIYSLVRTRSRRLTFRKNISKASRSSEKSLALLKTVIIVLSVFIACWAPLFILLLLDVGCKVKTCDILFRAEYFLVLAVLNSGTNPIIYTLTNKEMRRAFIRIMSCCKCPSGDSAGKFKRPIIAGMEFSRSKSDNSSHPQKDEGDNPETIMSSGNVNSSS
human S1Ps receptor, sequence (Q9H228 whole entry): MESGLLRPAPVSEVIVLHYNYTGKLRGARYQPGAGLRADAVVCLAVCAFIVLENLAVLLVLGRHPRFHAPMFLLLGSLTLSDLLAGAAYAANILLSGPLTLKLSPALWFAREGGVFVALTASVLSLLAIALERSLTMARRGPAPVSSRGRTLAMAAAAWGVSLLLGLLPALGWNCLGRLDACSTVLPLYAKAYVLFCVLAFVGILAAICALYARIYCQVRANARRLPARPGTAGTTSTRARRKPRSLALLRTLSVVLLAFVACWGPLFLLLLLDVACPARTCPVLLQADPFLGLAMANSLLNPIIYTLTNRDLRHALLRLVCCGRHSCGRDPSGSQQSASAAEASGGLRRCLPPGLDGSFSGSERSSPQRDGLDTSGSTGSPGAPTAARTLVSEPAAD
human S1P2 receptor, sequence (O95136 whole entry): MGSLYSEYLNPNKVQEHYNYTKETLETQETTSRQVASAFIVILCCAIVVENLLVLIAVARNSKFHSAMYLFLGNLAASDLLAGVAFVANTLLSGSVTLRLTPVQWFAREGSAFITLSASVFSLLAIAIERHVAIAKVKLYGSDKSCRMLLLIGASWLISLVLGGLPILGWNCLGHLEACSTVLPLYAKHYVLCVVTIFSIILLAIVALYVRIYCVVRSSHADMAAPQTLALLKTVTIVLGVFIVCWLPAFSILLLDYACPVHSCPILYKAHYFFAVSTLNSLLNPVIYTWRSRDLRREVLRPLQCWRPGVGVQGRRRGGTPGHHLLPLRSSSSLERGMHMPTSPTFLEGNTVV
S1P3 receptor, sequence (Q99500 whole entry): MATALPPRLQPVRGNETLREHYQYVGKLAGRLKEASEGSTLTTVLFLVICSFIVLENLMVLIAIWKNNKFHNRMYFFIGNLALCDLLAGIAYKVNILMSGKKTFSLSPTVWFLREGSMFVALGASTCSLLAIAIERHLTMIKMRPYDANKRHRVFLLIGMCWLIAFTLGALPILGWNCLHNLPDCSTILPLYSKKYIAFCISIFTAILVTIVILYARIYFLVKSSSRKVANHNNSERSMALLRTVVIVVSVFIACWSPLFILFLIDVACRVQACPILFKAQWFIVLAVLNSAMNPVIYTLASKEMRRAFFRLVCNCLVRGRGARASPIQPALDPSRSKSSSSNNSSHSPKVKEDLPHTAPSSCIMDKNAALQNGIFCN

agonistic activity at S1P3 receptor [1]: no agonistic activity
agonistic activity at human S1P2 receptor [3]: no agonistic activity
agonistic activity at human S1Ps receptor [4]: agonistic activity
agonistic activity at human S1P4 receptor [5]: agonistic activity
Structure (SMILES): CCCCCCCOc1ccc(CCC(N)(CO)COP(=O)(O)O)cc1C(F)(F)F (stereo in doubt) [(S)-MT-1303-P]
agonistic activity at human S1P1 receptor [2]: more potently than at human S1P4 receptor and human S1Ps receptor

increase of steady-state AUC on day 13 compared with day 1 [6]: 4 fold
increase of steady-state Cmax on day 13 compared with day 1 [6]: 4 fold
half-life [7]: approximately 400 hours
period of accumulation to steady state [7]: about 10 weeks
Structure (SMILES): CCCCCCCOc1ccc(CC[C@@](N)(CO)COP(=O)(O)O)cc1C(F)(F)F [MT-1303-P]

Structure (SMILES): COc1c(N2C[C@@H]3CCCN[C@@H]3C2)c(F)cc2c(=O)c(C(=O)O)cn(C3CC3)c12 [Moxifloxacin, moxifloxacin, reference compound]
Constipation ([8]; Days 1-26, n = 95): 11 (12) n (%)
Dizziness ([8]; Days 1-26, n = 95): 1 (1) n (%)
Headache ([8]; Days 1-26, n = 95): 12 (13) n (%)
Number of subjects with an adverse event ([8]; Days 1-26, n = 95): 49 (52) n (%)
Upper respiratory tract infection ([8]; Days 1-26, n = 95): 1 (1) n (%)
White blood cell count decreased ([8]; Days 1-26, n = 95): 0 n (%)
Constipation ([8]; Days 27+, n = 46): 0 n (%)
Dizziness ([8]; Days 27+, n = 46): 1 (2) n (%)
Headache ([8]; Days 27+, n = 46): 0 n (%)
Number of subjects with an adverse event ([8]; Days 27+, n = 46): 7 (15) n (%)
Upper respiratory tract infection ([8]; Days 27+, n = 46): 0 n (%)
White blood cell count decreased ([8]; Days 27+, n = 46): 0 n (%)
discontinuation rate [8]: 4%

time to therapeutic steady state ([6]; 0.4 mg QD administration): 14 days
increase of steady-state AUC on day 13 compared with day 1 [6]: 10 fold
increase of steady-state Cmax on day 13 compared with day 1 [6]: 10 fold
half-life ([7]; human, in vivo, read-out: half-life (converted)): ~16.7 days
half-life [7]: approximately 400 hours
period of accumulation to steady state [7]: about 10 weeks
terminal half-life relative to etrasimod ([7]; longer than etrasimod): about 20 times
Structure (SMILES): CCCCCCCOc1ccc(CCC(N)(CO)CO)cc1C(F)(F)F [amiselimod]
number of peripheral blood lymphocytes (PBLs) [9]: significantly reduced
Constipation ([8]; Days 1-13, n = 95): 8 (8) n (%)
Dizziness ([8]; Days 1-13, n = 95): 5 (5) n (%)
Headache ([8]; Days 1-13, n = 95): 4 (4) n (%)
Number of subjects with an adverse event ([8]; Days 1-13, n = 95): 55 (58) n (%)
Upper respiratory tract infection ([8]; Days 1-13, n = 95): 1 (1) n (%)
White blood cell count decreased ([8]; Days 1-13, n = 95): 18 (19) n (%)
Constipation ([8]; Days 14+, n = 92): 6 (7) n (%)
Dizziness ([8]; Days 14+, n = 92): 6 (7) n (%)
Headache ([8]; Days 14+, n = 92): 11 (12) n (%)
Number of subjects with an adverse event ([8]; Days 14+, n = 92): 57 (62) n (%)
Upper respiratory tract infection ([8]; Days 14+, n = 92): 6 (7) n (%)
White blood cell count decreased ([8]; Days 14+, n = 92): 13 (14) n (%)
amiselimod-related serious AE of atrial fibrillation ([8]; day 26, after amiselimod 1.6 mg for 3 of the preceding 4 days): One subject
mean absolute lymphocyte count, nadir ([8]; day 27): 0.424 thou/μL
changes to vital signs, physical examinations, and ECG parameters ([8]; in vivo): within normal limits
tolerability ([8]; multiple, upwardly titrated doses, healthy subjects): generally well tolerated
mean absolute lymphocyte count ([8]; predose): 1.681 thou/μL
discontinuation rate [8]: 8%
number of peripheral blood lymphocytes (PBLs) [10]: significantly reduced
reduction in lymphocyte counts after discontinuation ([6]; after amiselimod discontinuation): maintained
colitis [11]: reduced colitis
effect on colitis compared with murine anti-TNF-α antibody [11]: comparable to that of a murine anti-tumor necrosis factor-α (TNF-α) antibody
negative chronotropic activity [12]: lack of negative chronotropic activity
number of peripheral blood lymphocytes (PBLs) [13]: significantly reduced

Structure (SMILES): O=C(O)C[C@H]1CCc2c1[nH]c1ccc(OCc3ccc(C4CCCC4)c(C(F)(F)F)c3)cc21 [etrasimod]
half-life [14]: 0.708 to 0.833 days

From US20240299318A1, “AMISELIMOD FOR PREVENTING, TREATING OR AMELIORATING ULCERATIVE COLITIS” (Bausch Health Ireland Limited, priority 2021, published 2024)
